Experimental data as given in patent publication US20070292392A1, “USE OF THYMOSIN ALPHA 1 FOR PREPARING A MEDICAMENT FOR THE TREATMENT OF STAGE IV MALIGNANT MELANOMA” (SIGMA-TAU INDUSTRIE FARMACEUTICHE RIUNITE S.P.A., priority 2006, published 2007).
Ends that are not written are not given here.

How the values were obtained:
metastatic melanoma = details: cited from earlier work
[1] = system: human non-small cell lung cancer (NSCLC) cells; details: subcutaneous 1 or 10 mg per day; nude mice previously inoculated with human NSCLC cells; cited from earlier work
lymphosarcoma cells = details: BALB/c mice; cited from earlier work
[2] = system: stage IV melanoma characterized by distant unresectable metastases; test: Phase II clinical trial with DTIC plus Tα1 with or without IFNα vs DTIC plus IFNα; tumor response by RECIST; format: in vivo, human; details: preliminary analysis on 142 patients; at the higher doses of Tα1
From the text: Phase II Clinical Trial with Dacarbazine (DTIC) Plus Thymosin alpha 1 (Tα1) with or without Interferon alpha (IFNα) vs DTIC Plus IFNα in Stage IV Melanoma Characterized by Distant Unresectable Metastases
Trial Design phase II, randomized, stratified, open-study testing different doses of Tα1 in association with DTIC and IFNα, as first line therapy for stage IV melanoma patients characterized by distant unresectable metastases (AJCC; Journal of Clinical Oncology 2001, 19: 3635-3648) without brain metastases. The primary study end-point was tumor response, and the following combination composition were used:
The protocol was than amended: 30 patients were added to each of the 2 triple therapies in order to balance the sample size of all the four groups and the following new group (using a higher dose of Tα1) was added:
The five groups were analyzed independently one another within the so-called “pick the winner” strategy.
Methods: Recycling every 28 days, patients were administered DTIC (800 mg/m^2) i.v. at day 1, Tα1 (1.6 or 3.2 mg) s.c. at days 8-11 and 15-18, and IFNα (3 MIU) s.c. at day 11 and 18. Clinical response was evaluated every two cycles according to RECIST criteria (New Guidelines to Evaluate the Response to Treatment in Solid Tumors; Journal of the National Cancer Institute, 2000. 92: 205-216) utilizing a central reader. […]

Compound: CN(C)/N=N/c1[nH]cnc1C(N)=O [DTIC, Dacarbazine]
- duration of responses (short-lived) (metastatic melanoma; DTIC responses): three to six
- effect of responses on patients' overall survival (metastatic melanoma; DTIC): no evidence that these responses have any effect on the patients' overall survival
- actual overall responses to DTIC (metastatic melanoma; Journal of Clinical Oncology and ASCO proceedings 2004): 5.5-6.8%

Compound: thymosin alpha 1 (SDAAVDTSSEITTKDLKEKKEVVEEAEN; ends and bridges not checked; UniProt P06454 2-29, looked up) [a compound well known in the medical field]
- tumor volume [1]: significantly decreased
- local sarcoma growth as well as liver and lung metastases of lymphosarcoma cells (lymphosarcoma cells): significantly reduced
- dose-response effect on tumor response [2]: clear dose-response effect
